Experimental data: US20220110936A1, “PHARMACEUTICAL COMPOSITION FOR TREATMENT OF NEURODEGENERATIVE DISEASES OR DISEASES CAUSED BY ABNORMALITY OF RNA BINDING PROTEIN AND APPLICATIONS THEREOF” (Shanghai Institute of Organic Chemistry, Chinese Academy of …, priority 2019, published 2022)

How the values were obtained:
hnRNP A1 = biological target: T1, hnRNP A1 (Homo sapiens, UniProt P09651); experiment: In vitro liquid-liquid phase separation (LLPS) of hnRNP A1; settings: added under critical conditions
T1 construct: host or cells: E. coli BL21 (DE3) pLysS
T1 sequence (P09651 1-320 isoform P09651-2): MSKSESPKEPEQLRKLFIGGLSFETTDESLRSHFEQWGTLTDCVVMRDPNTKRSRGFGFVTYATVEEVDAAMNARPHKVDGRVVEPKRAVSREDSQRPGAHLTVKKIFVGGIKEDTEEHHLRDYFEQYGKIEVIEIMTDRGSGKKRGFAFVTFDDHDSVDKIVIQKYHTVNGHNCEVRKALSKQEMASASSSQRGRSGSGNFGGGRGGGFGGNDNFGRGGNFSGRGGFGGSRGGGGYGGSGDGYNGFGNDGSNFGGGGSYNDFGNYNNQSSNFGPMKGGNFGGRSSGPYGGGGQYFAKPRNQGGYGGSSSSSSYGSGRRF
Experimental: pET9d-hnRNP A1 (Addgene) was used for hnRNP A1 protein expression in E. coli BL21 (DE3) pLysS (TranGeneBiotech). After 0.4 mM IPTG (SangonBiotech) induction at 25° C. for 15 h, the obtained bacteria were collected by centrifugation, and lysed by lysis buffer (50 mM Tris-HCl at pH 7.5, 2 mM DTT, 1 mM PMSF, 5% glycerin, and 0.1 mg/mL RNase A). Supernatant was collected by centrifugating the lysate at a high speed at 4° C. and then transferred to a 5 ml SP column in an AKTA (GE Healthcare) machine. The protein binded on the column was eluted with a mixture (9:1) of buffer A (50 mM Tris-HCl pH 7.5, 2 mM DTT and 5% glycerin) and buffer B (buffer A with 1 M NaCl). The eluted protein was purified by Superdex 75 16/600 column (GE Healthcare). The purified protein was dissolved in stock buffer (50 mM Tris-HCl pH 7.5, 500 mM NaCl and 2 mM DTT) for subsequent experiments.
The purified hnRNP A1 protein was mixed with a certain concentration of PAR (Trevigen) under a certain salt concentration. The reaction system was 50 mM Tris-HCl, pH 7.5, 10% (w/v) […] (Sigma) and 2 mM DTT. After the mixture was incubated at room temperature for 3 minutes, 5 μl was dropped on a glass slide for observation with an SP8 confocal microscope (Leica).

[1] = tested on: stress granules containing TDP-43 protein in HeLa cells; experiment: Assembly of stress granules containing TDP-43 under sodium arsenite (immunofluorescence); type: cell-based, human; settings: 20 μM, 3 h pretreatment, vs DMSO
Experimental: Drug treatment: in order to inhibit the level of intracellular PARylation, 20 μM PARP inhibitor Olaparib (Selleck) was added 3 hours before harvesting the plasmid-transfected samples mentioned above, and the control group was treated with an equal volume of DMSO.
In order to induce the production of stress granules, the HeLa cells collected in 1.1.3 were treated with 100 μM sodium arsenite (Sigma) for 0, 10 and 30 minutes, respectively.
Cells harvested after treatment in 1.1.4 above were washed once with PBS, fixed with 4% paraformaldehyde (Sangon Biotech) for 15 min, permeabilized with 0.5% Triton-X100 (Sigma) solution for 10 min, and finally incubated with PBST solution containing 3% goat serum (Sigma) (0.1% Tween 20 (Sigma) in PBS) for 1 h at room temperature and incubated overnight at 4° C. with antibodies (Rabbit anti-TIAR (CST), Mouse anti-Flag (Sigma)). The cells were washed with PBST three times at room temperature and incubated for 1 hour at room temperature. After washing three times with PBST at room temperature, fluorescent secondary antibodies (goat anti-mouse-Alexa Fluor 488 (Thermo), goat anti-rabbit-Alexa Fluor 568 (Thermo)) were added for labeling, and then Vectashield Antifade Mounting Medium with DAPI (Vector Laboratories) was used to seal the slices. The signals were observed and acquired under a 100× oil microscope on a Leica TCS SP8 confocal microscope. […]

[2] = tested on: motor neuron-like NSC-34 cells overexpressing TDP-43; experiment: Cell viability (CCK-8) of NSC-34 cells overexpressing TDP-43; type: cell-based; settings: 5 μM
Experimental: (§1) 293T cells were cultured in DMEM (sigma) containing 10% FBS (Biowest). NSC-34 cells were cultured with RPMI 1640 medium (Gibco, 11875-093) containing 10% FBS. Cells were grown at 37° C. with 5% carbon dioxide. Cells were both purchased from ATCC.
(§2) Lentiviral packaging plasmids and the corresponding exogenous hnRNP A1 or TDP-43 expression plasmids were transfected simultaneously in 293T cells with PolyJet™ transfection reagent. After 48 hours of transfection, the cell culture was collected by filtration with a 0.45 μm syringe filter (Millipore) and concentrated with Lenti-X™ Concentrator (Clontech), and the concentrated product was used for subsequent infection of NSC-34 cells.
(§3) NSC-34 cells were seeded one day in advance in 96-well plates (Corning) and the corresponding lentivirus was added for transfection. Cell viability was determined 48-72 h after transfection using Cell Counting Kit-8 (CCK-8) (Dojindo) kit. In brief, 10 μL of CCK-8 solution was added to each well. After incubation at 37° C. for 2.5 h, the absorbance light at 450 nm of the solution was detected with a Synergy2 microplate reader (BioTek Instruments) and cell viability values were calculated according to the instructions.
(§4) The siRNA transfection procedure was the same as that in Example 1, and the transfection time was 48-60 h. The corresponding siRNA sequences are as follows.

[3] = tested on: motor neuron-like NSC-34 cells overexpressing hnRNP A1; experiment: Cell viability (CCK-8) of NSC-34 cells overexpressing hnRNP A1; type: cell-based
Experimental: as §1, §2, §3, §4

PARP = experiment: Western blot of intracellular PARylation level in HeLa cells; type: cell-based, human; settings: 20 μM, 3 h, vs DMSO
Experimental: Drug treatment: in order to inhibit the level of intracellular PARylation, 20 μM PARP inhibitor Olaparib (Selleck) was added 3 hours before harvesting the plasmid-transfected samples mentioned above, and the control group was treated with an equal volume of DMSO. […]
Immunoblotting assay: the above boiled proteins were separated by 10% Bis-Tris SDS-PAGE (Invitrogen), then transferred to 0.22 μm PVDF membrane (Millipore), sealed with 5% skimmed milk powder, and added with corresponding antibodies (anti-pan-ADP-ribose binding reagent (Millipore), mouse anti-Tubulin (MLB), rabbit anti-PRAG (CST), mouse anti-GAPDH (Proteintech)) for immunoblotting assay. Membranes incubated with primary antibodies were then incubated with the corresponding secondary antibodies coupled with HRP (goat anti-mouse (Sigma), goat anti-rabbit (sigma)), and corresponding protein signals were detected in Amersham Imager 600 (GE Healthcare) using ECL luminescent solution (Tanon).

[4] = tested on: stress granules containing hnRNP A1 protein in HeLa cells; experiment: Assembly of stress granules containing hnRNP A1 under sodium arsenite (immunofluorescence); type: cell-based, human; settings: 20 μM, 3 h pretreatment, 100 μM sodium arsenite 0, 10, 30 min, vs DMSO
Experimental: HeLa cells were cultivated in Dulbecco's modified Eagle's medium (DMEM) (sigma) containing 10% fetal bovine serum (FBS) (Biowest). Cells were purchased from American Type Culture Collection (ATCC) and grown at 37° C., 5% carbon dioxide. In the present invention, unless otherwise specified, cell were seeded 12-18 hours in advance in 24-well plates (Corning) containing glass slides (Thermo) at a density of 2×10^5/ml experiments if the cells were used for subsequent immunofluorescence assays, cells were seeded 12-18 hours in advance in 12-well or 6-well plates at a density of 5×10^5/ml if the cells were used for subsequent WB detection assays.
Plasmid transfection: The plasmid pCAG-hnRNP A1-Flag constructed in 1.1.1 was transfected with PolyJet™ reagent (SignaGen) (the amount of transfection plasmid is 0.8 μg/ml, and the ratio of transfection reagent to transfection plasmid is 1:2 (mass volume percentage, for example, […])). Cells were seeded 12-18 hours in advance and transfection was started when the confluence of cell reached about 70%. About 6 hours after transfection, culture medium were changed to ensure growth status of cells. After the exogenous protein was expressed for 24-48 h, the next step of the experiment can be carried out. […]

ALS patients = settings: cited from earlier work
hnRNP A1 and TDP-43 = experiment: In vitro co-phase separation of hnRNP A1 and TDP-43 fragments
Experimental: TDP-43^1-274: The expression plasmid pET-28a-TDP-43^1-274-6×His was expressed in BL21 E. coli (DE3) (TranGeneBiotech) after induction by 50 uM IPTG (SangonBiotech) at 19° C. for 16 h. The resulting bacteria were collected by centrifugation, and lysed by lysis buffer (50 mM Tris-HCl, 500 mM NaCl, pH 8.0, 10 mM imidazole, 4 mM β-mercaptoethanol, 1 mM PMSF, and 0.1 mg/mL RNase A). Supernatant was collected by centrifugating the lysate at low temperature and then purified and enriched by Ni column (GE Healthcare). The protein enriched by Ni columns was eluted with eluent (50 mM Tris-HCl, 500 mM NaCl, pH 8.0, 250 mM imidazole and 4 mM β-mercaptoethanol), and then purified with Superdex 200 […] column (GE Healthcare). The purified protein was finally dissolved in a storage buffer (50 mM Tris-HCl pH 7.5, 300 mM NaCl and 2 mM DTT) for subsequent experiments.
TDP-43^274-414: This protein was expressed in BL21 E. coli (DE3) (TranGeneBiotech) by adding 50 uM IPTG (SangonBiotech) at 37° C. for inducing the expression of the protein in inclusion bodies. Collected bacteria were lysed with denaturing lysis buffer (50 mM Tris-HCl, pH 8.0 and 6 M guanidine hydrochloride). The lysis product was centrifuged at high speed for 1 h at 4° C. and the supernatant was collected for purification by Ni column. The proteins were eluted with denaturing elution solution (50 mM Tris-HCl at pH 8.0, 6 M guanidine hydrochloride and 50 mM imidazole) and then further purified by HPLC (Agilent) and the resulting product was lyophilized using a freeze-dryer (Thermo Fisher) and then prepared for use.
The purified TDP-43^1-274 and hnRNP A1 proteins (obtained in Example 6) were diluted separately into desalting reaction solution (50 mM Tris-HCl, pH 7.5, 500 mM NaCl and 4 mM Tris(2-Carboxyethyl) Phosphine (TCEP) (Invitrogen)), and DTT was removed using a desalting column (GE Healthcare). After desalting, TDP-43^1-274 and hnRNP A1 proteins were incubated for 2 h at room temperature with 5 times the volume of AlexaFluor-555 C2-malemide (Invitrogen) or AlexaFluor-647 C2-malemide (Invitrogen), respectively. […]

Compound: heparin
- LLPS of hnRNP A1 (hnRNP A1): did not promote

Compound: O=C(c1cc(Cc2n[nH]c(=O)c3ccccc23)ccc1F)N1CCN(C(=O)C2CC2)CC1 [Olaparib]
- formation of intracellular stress granules and stress granules containing TDP-43 [1]: delayed
- cytotoxicity induced by overexpression of TDP-43 [2]: can reduce the cytotoxicity
- hnRNP A1-induced neurocytotoxicity [3]: significant inhibitory effect
- intracellular level of PARylation (WB) (PARP): significantly reduce
- formation of intracellular stress granules and stress granules containing hnRNP A1 [4]: delayed

Compound: CC1=NN(c2ccccc2)C(=O)C1 [Edaravone]
- physical impairment in ALS patients (ALS patients; phase III clinical trials): alleviate some degree of physical impairment

Compound: Nc1nc2ccc(OC(F)(F)F)cc2s1 [Riluzole]
- prolongation of the patient's life (ALS patients; ALS patients): 3-6 months
- side effects (ALS patients; ALS patients): nausea, dizziness and even pneumonia

Compound: poly(ADP-ribose) [PAR]
- LLPS of hnRNP A1 (hnRNP A1): promoted
- co-phase separation of hnRNP A1 and TDP-43 1-274 (hnRNP A1 and TDP-43): can promote
- co-phase separation of hnRNP A1 and TDP-43 274-414 (hnRNP A1 and TDP-43; high concentration): cannot promote
- phase separation of hnRNP A1 or TDP-43 1-274 alone (hnRNP A1 and TDP-43; high concentration): cannot promote
